Laboratory results reported in ChEMBL document CHEMBL1201862, “PubChem BioAssay data set” (2004).
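Interpolation was linear, between the two tested concentrations surrounding the appropriate level; five concentrations were tested over 48 hours in 96-well plates. At the GI50, growth is halved.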 The source made the active and inactive calls. Cut-off read from the data, not from the text of the source: active = GI50 up to about 1.1 µM and inactive = higher.

Tests used:
Assay in all cases: DTP human tumour cell line panel, 48 h
[1] = system: Hs-578T
[2] = system: OVCAR-3
[3] = system: CCRF-CEM
[4] = system: ACHN
[5] = system: SK-MEL-5
[6] = system: U-251
[7] = system: SK-OV-3
[8] = system: SW-620
[9] = system: MDA-MB-435
[10] = system: MDA-MB-231
[11] = system: HCT-15
[12] = system: COLO 205
[13] = system: DU-145
[14] = system: IGROV-1
[15] = system: M14
[16] = system: CAKI-1
[17] = system: SK-MEL-2
[18] = system: PC-3
[19] = system: SF-268
[20] = system: HOP-62
[21] = system: SK-MEL-28
[22] = system: MDA-N
[23] = system: EKVX
[24] = system: SR
[25] = system: OVCAR-8
[26] = system: Malme-3M
[27] = system: UO-31
[28] = system: SF-295
[29] = system: HL-60
[30] = system: 786-0
[31] = system: OVCAR-5
[32] = system: NCI/ADR-RES
[33] = system: OVCAR-4
[34] = system: RPMI-8226
[35] = system: SNB-19
[36] = system: MCF7
[37] = system: UACC-257
[38] = system: SN12C
[39] = system: K562
[40] = system: NCI-H460
[41] = system: UACC-62
[42] = system: HT-29
[43] = system: NCI-H226
[44] = system: SNB-75
[45] = system: A549
[46] = system: NCI-H23
[47] = system: TK-10
[48] = system: KM12
[49] = system: HCT-116
[50] = system: BT-549
[51] = system: A498
[52] = system: T47D
[53] = system: RXF 393
[54] = system: HOP-92
[55] = system: MOLT-4
[56] = system: HCC 2998
[57] = system: LOX IMVI
[58] = system: NCI-H522

Measured: GI50

COc1ccc(/C=N/NC(=O)c2ccccc2Nc2ccccc2C(=O)N/N=C/c2ccc(OC)c(OC)c2)cc1OC
inactive: [1] > 100 µM | [2] > 100 µM | [3] > 100 µM | [4] > 100 µM | [5] > 100 µM | [6] > 100 µM | [7] > 100 µM | [8] > 100 µM | [9] > 100 µM | [10] 29.6 µM | [12] > 100 µM | [13] > 100 µM | [14] > 100 µM | [15] 36.5 µM | [16] > 100 µM | [17] > 100 µM | [18] > 100 µM | [19] > 100 µM | [20] > 100 µM | [21] > 100 µM | [22] > 100 µM | [23] > 100 µM | [24] > 100 µM | [25] > 100 µM | [26] 51.5 µM | [27] > 100 µM | [28] 39.9 µM | [29] > 100 µM | [30] > 100 µM | [31] > 100 µM | [32] > 100 µM | [33] > 100 µM | [34] > 100 µM | [35] > 100 µM | [36] > 100 µM | [37] > 100 µM | [38] > 100 µM | [39] > 100 µM | [40] > 100 µM | [41] > 100 µM | [42] > 100 µM | [43] > 100 µM | [44] > 100 µM | [45] > 100 µM | [46] > 100 µM | [47] > 100 µM | [48] > 100 µM | [49] > 100 µM | [50] > 100 µM | [51] > 100 µM | [52] > 100 µM | [53] > 100 µM | [54] 71.9 µM | [55] > 100 µM | [56] > 100 µM
> 100 µM: [11]

CCCCCC(=O)n1[nH]c(=O)n(-c2ccc(OC)cc2)c1=O
> 100 µM: [11]
inactive: [1] > 100 µM | [2] > 100 µM | [3] > 100 µM | [4] > 100 µM | [5] > 100 µM | [6] > 100 µM | [7] > 100 µM | [8] > 100 µM | [9] > 100 µM | [10] > 100 µM | [12] > 100 µM | [13] > 100 µM | [57] > 100 µM | [14] > 100 µM | [15] > 100 µM | [16] > 100 µM | [17] > 100 µM | [18] > 100 µM | [19] > 100 µM | [20] > 100 µM | [21] > 100 µM | [22] > 100 µM | [23] > 100 µM | [24] > 100 µM | [25] > 100 µM | [26] 63.1 µM | [27] > 100 µM | [28] > 100 µM | [58] 57.5 µM | [29] > 100 µM | [30] > 100 µM | [31] > 100 µM | [32] > 100 µM | [33] > 100 µM | [34] > 100 µM | [35] > 100 µM | [36] > 100 µM | [37] > 100 µM | [38] > 100 µM | [39] > 100 µM | [40] > 100 µM | [41] > 100 µM | [42] > 100 µM | [43] > 100 µM | [44] > 100 µM | [45] > 100 µM | [46] > 100 µM | [47] > 100 µM | [48] > 100 µM | [49] > 100 µM | [50] > 100 µM | [52] > 100 µM | [53] > 100 µM | [55] > 100 µM | [56] > 100 µM

Cn1c(=O)[nH]c2sc3c(c2c1=N)CCCC3
active: [17] 0.199 µM
> 75 µM: [11]
inactive: [1] > 75 µM | [2] > 75 µM | [4] > 75 µM | [5] > 75 µM | [6] > 75 µM | [8] > 75 µM | [9] > 75 µM | [10] > 75 µM | [12] > 75 µM | [13] > 75 µM | [57] > 75 µM | [14] > 75 µM | [16] > 75 µM | [18] > 75 µM | [19] > 75 µM | [20] > 75 µM | [21] > 75 µM | [22] > 75 µM | [23] 54.7 µM | [24] > 75 µM | [25] > 75 µM | [26] > 75 µM | [27] > 75 µM | [28] > 75 µM | [58] > 75 µM | [29] 32.7 µM | [30] > 75 µM | [31] > 75 µM | [32] > 75 µM | [33] > 75 µM | [34] 50.1 µM | [35] > 75 µM | [36] > 75 µM | [37] > 75 µM | [38] > 75 µM | [39] > 75 µM | [40] > 75 µM | [41] > 75 µM | [42] > 75 µM | [43] > 75 µM | [44] > 75 µM | [46] > 75 µM | [47] > 75 µM | [48] > 75 µM | [49] > 75 µM | [50] > 75 µM | [51] > 75 µM | [52] > 75 µM | [53] > 75 µM | [55] > 75 µM | [56] 58.9 µM
